Assay [1] addresses T1, gastric inhibitory peptide receptor (GIPR) (Homo sapiens, UniProt P48546).
T1 sequence (P48546 22-466): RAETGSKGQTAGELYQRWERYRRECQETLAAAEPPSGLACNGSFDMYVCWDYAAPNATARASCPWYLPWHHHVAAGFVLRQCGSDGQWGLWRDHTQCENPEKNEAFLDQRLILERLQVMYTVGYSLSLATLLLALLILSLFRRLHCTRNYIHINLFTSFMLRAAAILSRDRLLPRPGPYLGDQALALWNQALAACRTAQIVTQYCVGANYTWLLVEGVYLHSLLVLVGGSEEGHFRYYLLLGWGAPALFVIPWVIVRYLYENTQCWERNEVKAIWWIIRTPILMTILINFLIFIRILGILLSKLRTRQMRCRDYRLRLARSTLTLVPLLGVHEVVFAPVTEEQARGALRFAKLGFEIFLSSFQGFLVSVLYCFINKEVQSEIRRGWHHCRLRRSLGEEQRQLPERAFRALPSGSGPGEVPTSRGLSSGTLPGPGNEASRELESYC
In words: cAMP pharmacological functional assay in presence of casein, hGIPR. The following applies: HEK293 cells expressing hGIPR, 0.1% Casein, geometric mean; read-out: hGIPR cAMP Rel EC50 nM (SEM, n). It counts as cell-based.

The target in assay [2] is human GLP-1 receptor (GLP-1R) (Homo sapiens, UniProt P43220). In words: cAMP pharmacological functional assay in presence of casein, hGLP-1R. The class given is cell-based. The conditions noted are these: HEK293 cells expressing hGLP-1R, 0.1% Casein, geometric mean; read-out: hGLP1R cAMP Rel EC50 nM (SEM, n).

Numbered stars: 1 amine (or outer) side, 2 acyl side, 3 side chain; on linkers, the order of the positions; unused ones are H or OH. Square brackets hold non-standard residues; d marks the D form. Side chains are listed from the residue outwards. Peptide text beside a SMILES is read from it. * marks the point of attachment. C20 diacid = O=C(O)CCCCCCCCCCCCCCCCCCC(=O)*; C18 diacid = O=C(O)CCCCCCCCCCCCCCCCC(=O)*; γGlu = O=C(O)[C@H](CCC(=O)[*:2])N[*:1]; αMeP = C[C@@]1(C(=O)O)CCCN1; AEEA = NCCOCCOCC(=O)O

By EC50 is commonly meant the concentration at which the effect is half-maximal.

Chain of human GLP-1 receptor (GLP-1R) (P43220 24-463): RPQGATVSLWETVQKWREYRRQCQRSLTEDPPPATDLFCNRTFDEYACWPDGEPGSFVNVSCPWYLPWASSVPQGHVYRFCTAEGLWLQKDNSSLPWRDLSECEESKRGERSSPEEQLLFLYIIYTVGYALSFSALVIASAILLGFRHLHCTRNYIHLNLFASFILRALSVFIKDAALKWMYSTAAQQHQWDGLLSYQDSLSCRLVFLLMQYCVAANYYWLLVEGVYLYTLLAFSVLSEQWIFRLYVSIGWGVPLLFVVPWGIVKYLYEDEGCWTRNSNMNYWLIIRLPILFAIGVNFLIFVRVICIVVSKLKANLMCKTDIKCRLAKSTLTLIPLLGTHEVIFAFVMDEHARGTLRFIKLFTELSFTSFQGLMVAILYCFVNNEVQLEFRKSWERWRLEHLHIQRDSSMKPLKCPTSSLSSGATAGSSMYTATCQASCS

For `CC[C@H](C)[C@H](NC(=O)[C@H](CC(C)C)NC(=O)[C@H](Cc1ccc(O)cc1)NC(=O)[C@H](CCC(=O)O)NC(=O)[C@@H](NC(=O)[C@H](Cc1ccccc1)NC(=O)[C@H](C)NC(=O)[C@H](CCC(N)=O)NC(=O)[C@H](CCC(N)=O)NC(=O)[C@H](C)NC(=O)[C@H](CCCCNC(=O)COCCOCCNC(=O)COCCOCCNC(=O)CC[C@H](NC(=O)CCCCCCCCCCCCCCCCCCC(=O)O)C(=O)O)NC(=O)[C@H](CCC(=O)O)NC(=O)[C@H](CC(=O)O)NC(=O)[C@H](CC(C)C)NC(=O)[C@H](CC(C)C)NC(=O)[C@@H](NC(=O)[C@H](CO)NC(=O)[C@H](Cc1ccc(O)cc1)NC(=O)[C@H](CC(=O)O)NC(=O)[C@H](CO)NC(=O)[C@@H](NC(=O)[C@H](Cc1ccccc1)NC(=O)[C@@H](NC(=O)CNC(=O)[C@H](CCC(=O)O)NC(=O)[C@]1(C)CCCN1C(=O)[C@@H](N)Cc1ccc(O)cc1)[C@@H](C)O)[C@@H](C)O)[C@@H](C)CC)[C@@H](C)CC)C(=O)N[C@@H](CCC(=O)O)C(=O)NCC(=O)NCC(=O)N1CCC[C@H]1C(=O)N[C@@H](CO)C(=O)N[C@@H](CO)C(=O)NCC(=O)N[C@@H](C)C(=O)N1CCC[C@H]1C(=O)N1CCC[C@H]1C(=O)N1CCC[C@H]1C(=O)N[C@@H](CO)C(N)=O` [Example 193] (H-Y[αMeP]EGTFTSDYSILLDEK([AEEA-AEEA-γGlu-C20 diacid])AQQAFIEYLIEGGPSSGAPPPS-NH2), the EC50 turned out to be 0.336 nM in assay [1] and 0.162 nM in assay [2].

As for `CC[C@H](C)[C@H](NC(=O)[C@H](CC(C)C)NC(=O)[C@H](Cc1ccc(O)cc1)NC(=O)[C@H](CCC(=O)O)NC(=O)[C@@H](NC(=O)[C@H](Cc1ccccc1)NC(=O)[C@H](C)NC(=O)[C@H](Cc1c[nH]cn1)NC(=O)[C@H](CCC(N)=O)NC(=O)[C@H](C)NC(=O)[C@H](CCCCNC(=O)COCCOCCNC(=O)COCCOCCNC(=O)CC[C@H](NC(=O)CCCCCCCCCCCCCCCCCCC(=O)O)C(=O)O)NC(=O)[C@H](CCC(=O)O)NC(=O)[C@H](CC(=O)O)NC(=O)[C@H](CC(C)C)NC(=O)[C@H](CC(C)C)NC(=O)[C@@H](NC(=O)[C@H](CO)NC(=O)[C@H](Cc1ccc(O)cc1)NC(=O)[C@H](CC(=O)O)NC(=O)[C@H](CO)NC(=O)[C@@H](NC(=O)[C@H](Cc1ccccc1)NC(=O)[C@@H](NC(=O)CNC(=O)[C@H](CCC(=O)O)NC(=O)[C@]1(C)CCCN1C(=O)[C@@H](N)Cc1ccc(O)cc1)[C@@H](C)O)[C@@H](C)O)[C@@H](C)CC)[C@@H](C)CC)C(=O)N[C@@H](CCC(=O)O)C(=O)NCC(=O)NCC(=O)N1CCC[C@H]1C(=O)N[C@@H](CO)C(=O)N[C@@H](CO)C(=O)NCC(=O)N[C@@H](C)C(=O)N1CCC[C@H]1C(=O)N1CCC[C@H]1C(=O)N1CCC[C@H]1C(=O)N[C@@H](CO)C(N)=O` [Example 194] (H-Y[αMeP]EGTFTSDYSILLDEK([AEEA-AEEA-γGlu-C20 diacid])AQHAFIEYLIEGGPSSGAPPPS-NH2; N-terminus assumed), the figures for the EC50 in assay [1] and in assay [2] were 0.423 nM and 0.284 nM, respectively.

With `CC[C@H](C)[C@H](NC(=O)[C@H](CC(C)C)NC(=O)[C@H](Cc1ccc(O)cc1)NC(=O)[C@H](CCC(=O)O)NC(=O)[C@@H](NC(=O)[C@H](Cc1ccccc1)NC(=O)[C@H](C)NC(=O)[C@H](CCC(N)=O)NC(=O)[C@H](CCC(N)=O)NC(=O)[C@H](C)NC(=O)[C@H](CCCCNC(=O)COCCOCCNC(=O)COCCOCCNC(=O)CC[C@H](NC(=O)CCCCCCCCCCCCCCCCCCC(=O)O)C(=O)O)NC(=O)[C@H](CCCNC(=N)N)NC(=O)[C@H](CC(=O)O)NC(=O)[C@H](CC(C)C)NC(=O)[C@H](CC(C)C)NC(=O)[C@@H](NC(=O)[C@H](CO)NC(=O)[C@H](Cc1ccc(O)cc1)NC(=O)[C@H](CC(=O)O)NC(=O)[C@H](CO)NC(=O)[C@@H](NC(=O)[C@H](Cc1ccccc1)NC(=O)[C@@H](NC(=O)CNC(=O)[C@H](CCC(=O)O)NC(=O)[C@]1(C)CCCN1C(=O)[C@@H](N)Cc1ccc(O)cc1)[C@@H](C)O)[C@@H](C)O)[C@@H](C)CC)[C@@H](C)CC)C(=O)N[C@@H](CCC(=O)O)C(=O)NCC(=O)NCC(=O)N1CCC[C@H]1C(=O)N[C@@H](CO)C(=O)N[C@@H](CO)C(=O)NCC(=O)N[C@@H](C)C(=O)N1CCC[C@H]1C(=O)N1CCC[C@H]1C(=O)N1CCC[C@H]1C(=O)N[C@@H](CO)C(N)=O` [Example 195] (H-Y[αMeP]EGTFTSDYSILLDRK([AEEA-AEEA-γGlu-C20 diacid])AQQAFIEYLIEGGPSSGAPPPS-NH2), the figures for the half-maximal effective concentration (EC50) in assay [1] and in assay [2] were 0.193 nM and 0.0966 nM, respectively.

For the molecule `CC[C@H](C)[C@H](NC(=O)[C@H](CC(C)C)NC(=O)[C@H](Cc1ccc(O)cc1)NC(=O)[C@H](CCC(=O)O)NC(=O)[C@@H](NC(=O)[C@H](Cc1ccccc1)NC(=O)[C@H](C)NC(=O)[C@H](Cc1c[nH]cn1)NC(=O)[C@H](CCC(N)=O)NC(=O)[C@H](C)NC(=O)[C@H](CCCCNC(=O)COCCOCCNC(=O)COCCOCCNC(=O)CC[C@H](NC(=O)CCCCCCCCCCCCCCCCCCC(=O)O)C(=O)O)NC(=O)[C@H](CCCNC(=N)N)NC(=O)[C@H](CC(=O)O)NC(=O)[C@H](CC(C)C)NC(=O)[C@H](CC(C)C)NC(=O)[C@@H](NC(=O)[C@H](CO)NC(=O)[C@H](Cc1ccc(O)cc1)NC(=O)[C@H](CC(=O)O)NC(=O)[C@H](CO)NC(=O)[C@@H](NC(=O)[C@H](Cc1ccccc1)NC(=O)[C@@H](NC(=O)CNC(=O)[C@H](CCC(=O)O)NC(=O)[C@]1(C)CCCN1C(=O)[C@@H](N)Cc1ccc(O)cc1)[C@@H](C)O)[C@@H](C)O)[C@@H](C)CC)[C@@H](C)CC)C(=O)N[C@@H](CCC(=O)O)C(=O)NCC(=O)NCC(=O)N1CCC[C@H]1C(=O)N[C@@H](CO)C(=O)N[C@@H](CO)C(=O)NCC(=O)N[C@@H](C)C(=O)N1CCC[C@H]1C(=O)N1CCC[C@H]1C(=O)N1CCC[C@H]1C(=O)N[C@@H](CO)C(N)=O` [Example 196] (H-Y[αMeP]EGTFTSDYSILLDRK([AEEA-AEEA-γGlu-C20 diacid])AQHAFIEYLIEGGPSSGAPPPS-NH2), the EC50 in assay [1] was determined as 0.277 nM; in assay [2], 0.175 nM.

For the molecule `CC[C@H](C)[C@H](NC(=O)[C@H](CC(C)C)NC(=O)[C@H](Cc1ccc(O)cc1)NC(=O)[C@H](CCC(=O)O)NC(=O)[C@@H](NC(=O)[C@H](Cc1ccccc1)NC(=O)[C@H](C)NC(=O)[C@H](CCC(N)=O)NC(=O)[C@H](CCC(N)=O)NC(=O)[C@H](C)NC(=O)[C@H](CCCCNC(=O)COCCOCCNC(=O)COCCOCCNC(=O)CC[C@H](NC(=O)CCCCCCCCCCCCCCCCC(=O)O)C(=O)O)NC(=O)[C@H](CCC(=O)O)NC(=O)[C@H](CC(=O)O)NC(=O)[C@H](CC(C)C)NC(=O)[C@H](CC(C)C)NC(=O)[C@@H](NC(=O)[C@H](CO)NC(=O)[C@H](Cc1ccc(O)cc1)NC(=O)[C@H](CC(=O)O)NC(=O)[C@H](CO)NC(=O)[C@@H](NC(=O)[C@H](Cc1ccccc1)NC(=O)[C@@H](NC(=O)CNC(=O)[C@H](CCC(=O)O)NC(=O)[C@]1(C)CCCN1C(=O)[C@@H](N)Cc1ccc(O)cc1)[C@@H](C)O)[C@@H](C)O)[C@@H](C)CC)[C@@H](C)CC)C(=O)N[C@@H](CCC(=O)O)C(=O)NCC(=O)NCC(=O)N1CCC[C@H]1C(=O)N[C@@H](CO)C(=O)N[C@@H](CO)C(=O)NCC(N)=O` [Example 197] (H-Y[αMeP]EGTFTSDYSILLDEK([AEEA-AEEA-γGlu-C18 diacid])AQQAFIEYLIEGGPSSG-NH2), the EC50 in assay [1] amounted to 0.211 nM; in assay [2] it was 0.248 nM.

`CC[C@H](C)[C@H](NC(=O)[C@H](CC(C)C)NC(=O)[C@H](Cc1ccc(O)cc1)NC(=O)[C@H](CCC(=O)O)NC(=O)[C@@H](NC(=O)[C@H](Cc1ccccc1)NC(=O)[C@H](C)NC(=O)[C@H](CCC(N)=O)NC(=O)[C@H](CCC(N)=O)NC(=O)[C@H](C)NC(=O)[C@H](CCCCNC(=O)COCCOCCNC(=O)COCCOCCNC(=O)CC[C@H](NC(=O)CCCCCCCCCCCCCCCCC(=O)O)C(=O)O)NC(=O)[C@H](CCC(=O)O)NC(=O)[C@H](CC(=O)O)NC(=O)[C@H](CC(C)C)NC(=O)[C@H](CC(C)C)NC(=O)[C@@H](NC(=O)[C@H](CO)NC(=O)[C@H](Cc1ccc(O)cc1)NC(=O)[C@H](CC(=O)O)NC(=O)[C@H](CO)NC(=O)[C@@H](NC(=O)[C@H](Cc1ccccc1)NC(=O)[C@@H](NC(=O)CNC(=O)[C@H](CCC(=O)O)NC(=O)[C@]1(C)CCCN1C(=O)[C@H](N)Cc1ccc(O)cc1)[C@@H](C)O)[C@@H](C)O)[C@@H](C)CC)[C@@H](C)CC)C(=O)N[C@@H](CCC(=O)O)C(=O)NCC(=O)NCC(=O)N1CCC[C@H]1C(=O)N[C@@H](CO)C(=O)N[C@@H](CO)C(=O)NCC(N)=O` [Example 198] (H-[dY][αMeP]EGTFTSDYSILLDEK([AEEA-AEEA-γGlu-C18 diacid])AQQAFIEYLIEGGPSSG-NH2): the values for the concentration for a half-maximal effect (EC50) in assay [1] and in assay [2] were greater than 30 nM and 0.139 nM, respectively.

For the origin of these results see patent publication US12252524B2, “GIP/GLP1 co-agonist compounds” (Eli Lilly and Company, priority 2018, dated 2025).
